Holding throughout (format): cell-based
One assay relates to K. pneumoniae MP-648. As to the kind of experiment: Broth dilution MIC determination (CLSI), K. pneumoniae MP-648. The settings on record: Klebsiella pneumoniae, MP648; strain MP-648, broth dilution.
For the next assay, the system named is E. coli MP-4. The experiment in a line: Broth dilution MIC determination (CLSI), E. coli MP-4. The settings on record: Escherichia coli, MP4; strain MP-4, broth dilution; read-out: MIC E. coli MP-4. (Dilution methods test growth across graded concentrations, often in twofold steps.)
The subject of a further assay is K. pneumoniae MP-546. As to the kind of experiment: Broth dilution MIC determination (CLSI), K. pneumoniae MP-546. The settings on record: Klebsiella pneumoniae, MP546; strain MP-546, broth dilution.
For the next assay, the system named is P. aeruginosa MP-3. The experiment in a line: Broth dilution MIC determination (CLSI), P. aeruginosa MP-3. The settings on record: Pseudomonas aeruginosa, MP3; strain MP-3, broth dilution.
The test system of the next assay is S. aureus MP-12. As to the kind of experiment: Broth dilution MIC determination (CLSI), S. aureus MP-12. The settings on record: Staphylococcus aureus, MP12; strain MP-12, broth dilution.
The next assay concerns A. baumannii MP-15. The experiment in a line: Broth dilution MIC determination (CLSI), A. baumannii MP-15. As to conditions: Acinetobacter baumannii, MP15; strain MP-15, broth dilution; read-out: MIC A. baumanii MP-15.

Each structure is given as a SMILES string. In brackets after ≈: the same amount, converted by molar mass.

In general, MIC refers to the lowest concentration found to suppress growth. Turning to `CO[C@]1(C)C[C@@H](C)CN(C)[C@@H](C2CCN(C(C)[C@H]3COC(C)(C)O3)CC2)COC(=O)C(C)(C)C(=O)[C@H](C)[C@H]1O[C@@H]1O[C@H](C)C[C@H](N(C)C)[C@H]1O` (mixture of isomers) [Compound 172, (3S,6R,8R,9R,10R)-3-(1-(1-((S)-2,2-dimethyl-1,3-dioxolan-4-yl)ethyl)piperidin-4-yl)-9-(((2S,3R,4S,6R)-4-(dimethylamino)-3-hydroxy-6-methyltetrahydro-2H-pyran-2-yl)oxy)-8-methoxy-4,6,8,10,12,12-hexamethyl-1-oxa-4-azacyclotridecane-11,13-dione], the MIC against K. pneumoniae MP-648 was less than 4 µg/mL; in the assay on E. coli MP-4 it was less than 4 µg/mL; in the assay with K. pneumoniae MP-546, less than 4 µg/mL; in the assay on P. aeruginosa MP-3 it was greater than 32 µg/mL; against S. aureus MP-12, 4 to 32 µg/mL (≈ 5.62 to 44.9 µM); in the assay on A. baumannii MP-15 it was greater than 32 µg/mL.
As to `CO[C@]1(C)C[C@@H](C)CN(C)[C@H](C2CN(Cc3ccn(C)n3)C2)COC(=O)C(C)(C)C(=O)[C@H](C)[C@H]1O[C@@H]1O[C@H](C)C[C@H](N(C)C)[C@H]1O` [Compound 16, (3R,6R,8R,9R,10R)-9-(((2S,3R,4S,6R)-4-(dimethylamino)-3-hydroxy-6-methyltetrahydro-2H-pyran-2-yl)oxy)-8-methoxy-4,6,8,10,12,12-hexamethyl-3-(1-((1-methyl-1H-pyrazol-3-yl)methyl)azetidin-3-yl)-1-oxa-4-azacyclotridecane-11,13-dione], the MIC with K. pneumoniae MP-648 was 4 to 32 µg/mL (≈ 6.16 to 49.2 µM); with E. coli MP-4 it was less than 4 µg/mL; in the assay with K. pneumoniae MP-546 it was 4 to 32 µg/mL (≈ 6.16 to 49.2 µM); against P. aeruginosa MP-3 it was greater than 32 µg/mL; against S. aureus MP-12, 4 to 32 µg/mL (≈ 6.16 to 49.2 µM); in the assay on A. baumannii MP-15 it was greater than 32 µg/mL.
On to `CO[C@]1(C)C[C@@H](C)CN(C)[C@H]([C@H]2C[C@@H](N(C)CC3CC3)C2)COC(=O)C(C)(C)C(=O)[C@H](C)[C@H]1O[C@@H]1O[C@H](C)C[C@H](N(C)C)[C@H]1O` [Compound 18, (3R,6R,8R,9R,10R)-3-((1s,3S)-3-((cyclopropylmethyl)(methyl)amino)cyclobutyl)-9-(((2S,3R,4S,6R)-4-(dimethylamino)-3-hydroxy-6-methyltetrahydro-2H-pyran-2-yl)oxy)-8-methoxy-4,6,8,10,12,12-hexamethyl-1-oxa-4-azacyclotridecane-11,13-dione], for which the MIC in the assay on K. pneumoniae MP-648 was 4 to 32 µg/mL (≈ 6.27 to 50.2 µM); in the assay with E. coli MP-4 it was less than 4 µg/mL; against K. pneumoniae MP-546, 4 to 32 µg/mL (≈ 6.27 to 50.2 µM); with P. aeruginosa MP-3 it was greater than 32 µg/mL; in the assay with S. aureus MP-12, greater than 32 µg/mL; with A. baumannii MP-15, greater than 32 µg/mL.
On to `CO[C@]1(C)C[C@@H](C)CN(C)[C@H](C2CN(C(=O)[C@@H]3CCNC3)C2)COC(=O)C(C)(C)C(=O)[C@H](C)[C@H]1O[C@@H]1O[C@H](C)C[C@H](N(C)C)[C@H]1O` [Compound 22, (3R,6R,8R,9R,10R)-9-(((2S,3R,4S,6R)-4-(dimethylamino)-3-hydroxy-6-methyltetrahydro-2H-pyran-2-yl)oxy)-8-methoxy-4,6,8,10,12,12-hexamethyl-3-(1-((R)-pyrrolidine-3-carbonyl)azetidin-3-yl)-1-oxa-4-azacyclotridecane-11,13-dione], for which the MIC with K. pneumoniae MP-648 was greater than 32 µg/mL; in the assay with E. coli MP-4 it was 4 to 32 µg/mL (≈ 6.13 to 49 µM); against K. pneumoniae MP-546, greater than 32 µg/mL; against P. aeruginosa MP-3, greater than 32 µg/mL; in the assay on S. aureus MP-12, 4 to 32 µg/mL (≈ 6.13 to 49 µM); with A. baumannii MP-15, greater than 32 µg/mL.
In the case of `CO[C@]1(C)C[C@@H](C)CN(C)[C@@H](C2(CCN(C)CC3CC3)CC2)COC(=O)C(C)(C)C(=O)[C@H](C)[C@H]1O[C@@H]1O[C@H](C)C[C@H](N(C)C)[C@H]1O` [Compound 196], the MIC is greater than 32 µg/mL against K. pneumoniae MP-648; 4 to 32 µg/mL (≈ 6.14 to 49.1 µM) in the assay with E. coli MP-4; greater than 32 µg/mL in the assay on P. aeruginosa MP-3; greater than 32 µg/mL in the assay with S. aureus MP-12; greater than 32 µg/mL in the assay with A. baumannii MP-15.
Consider `CO[C@]1(C)C[C@@H](C)CN(C)[C@@H](C2(CCN(C)C(C)=O)CC2)COC(=O)C(C)(C)C(=O)[C@H](C)[C@H]1O[C@@H]1O[C@H](C)C[C@H](N(C)C)[C@H]1O` [Compound 197], for which the MIC in the assay with K. pneumoniae MP-648 was greater than 32 µg/mL; with E. coli MP-4 it was 4 to 32 µg/mL (≈ 6.25 to 50 µM); against P. aeruginosa MP-3, greater than 32 µg/mL; in the assay with S. aureus MP-12, greater than 32 µg/mL; in the assay on A. baumannii MP-15, greater than 32 µg/mL.
Consider `CO[C@]1(C)C[C@@H](C)CN(C)[C@](C)(C2CCN(C)CC2)COC(=O)C(C)(C)C(=O)[C@H](C)[C@H]1O[C@@H]1O[C@H](C)C[C@H](N(C)C)[C@H]1O` [Compound 198], for which the MIC against K. pneumoniae MP-648, in the assay on E. coli MP-4, in the assay on P. aeruginosa MP-3, in the assay on S. aureus MP-12 and in the assay on A. baumannii MP-15 was greater than 32 µg/mL in each case.
In the case of `CO[C@]1(C)C[C@@H](C)CN(C)[C@@H](C2CCN(C[C@H](CO)N(C)C)CC2)CO[C@@H](O)C(C)(C)C(=O)[C@H](C)[C@H]1O[C@@H]1O[C@H](C)C[C@H](N(C)C)[C@H]1O` [Compound 200], the MIC in the assay on K. pneumoniae MP-648 is greater than 32 µg/mL; in the assay with E. coli MP-4, 4 to 32 µg/mL (≈ 5.82 to 46.6 µM); against P. aeruginosa MP-3 it was greater than 32 µg/mL; in the assay with S. aureus MP-12, 4 to 32 µg/mL (≈ 5.82 to 46.6 µM); in the assay on A. baumannii MP-15 it was greater than 32 µg/mL.
Consider `CO[C@]1(C)C[C@@H](C)CN(C)[C@@H](C2CCN(C[C@@H]3COC(=O)N3)CC2)CO[C@@H](O)C(C)(C)C(=O)[C@H](C)[C@H]1O[C@@H]1O[C@H](C)C[C@H](N(C)C)[C@H]1O` [Compound 201], for which the MIC is greater than 32 µg/mL with K. pneumoniae MP-648; 4 to 32 µg/mL (≈ 5.84 to 46.7 µM) in the assay on E. coli MP-4; greater than 32 µg/mL in the assay on P. aeruginosa MP-3; greater than 32 µg/mL in the assay on S. aureus MP-12; greater than 32 µg/mL in the assay with A. baumannii MP-15.
Take `CO[C@]1(C)C[C@@H](C)CN(C)[C@@H](C2CCN(C[C@@H]3COC(=O)N3C)CC2)CO[C@@H](O)C(C)(C)C(=O)[C@H](C)[C@H]1O[C@@H]1O[C@H](C)C[C@H](N(C)C)[C@H]1O` [Compound 202]: the MIC against K. pneumoniae MP-648 is greater than 32 µg/mL; with E. coli MP-4, 4 to 32 µg/mL (≈ 5.72 to 45.8 µM); with P. aeruginosa MP-3, greater than 32 µg/mL; in the assay on S. aureus MP-12, greater than 32 µg/mL; in the assay with A. baumannii MP-15, greater than 32 µg/mL.
In the case of `CO[C@]1(C)C[C@@H](C)CN(C)[C@H](C2CN(CC(=O)O)C2)COC(=O)C(C)(C)C(=O)[C@H](C)[C@H]1O[C@@H]1O[C@H](C)C[C@H](N(C)C)[C@H]1O` [Compound 203], the MIC is greater than 32 µg/mL in the assay on K. pneumoniae MP-648; 4 to 32 µg/mL (≈ 6.52 to 52.1 µM) with E. coli MP-4; greater than 32 µg/mL against P. aeruginosa MP-3; greater than 32 µg/mL with S. aureus MP-12; greater than 32 µg/mL in the assay with A. baumannii MP-15.
Turning to `CO[C@]1(C)C[C@@H](C)CN[C@H](c2ccccc2)COC(=O)[C@H](C)C(=O)[C@H](C)[C@H]1O[C@@H]1OC(C)CC(N(C)C)C1O` (stereo partly drawn) [Compound 204], the minimum inhibitory concentration (MIC) with E. coli MP-4, in the assay on K. pneumoniae MP-546, in the assay with P. aeruginosa MP-3, against S. aureus MP-12 and in the assay with A. baumannii MP-15 was greater than 32 µg/mL throughout.
On to `CO[C@]1(C)C[C@@H](C)CN[C@@H](c2ccccc2)COC(=O)[C@H](C)C(=O)[C@H](C)[C@H]1O[C@@H]1OC(C)CC(N(C)C)C1O` (stereo partly drawn) [Compound 205], for which the MIC in the assay with E. coli MP-4, in the assay with K. pneumoniae MP-546, against P. aeruginosa MP-3, with S. aureus MP-12 and in the assay with A. baumannii MP-15 was greater than 32 µg/mL in each case.

The record behind these values is patent US20220177508A1, “C10-Cyclic Substituted 13-Membered Macrolides and Uses Thereof” (Zikani Therapeutics, Inc., priority 2018, published 2022).
